Assay results from patent US20260242350A1, “POLYCYCLIC THYROID HORMONE BETA RECEPTOR AGONIST AND USE THEREOF” (CASCADE PHARMACEUTICALS, INC., priority 2023, published 2026).

Assays:
[1] = target: T1, THRα LBD (His-GST-dLBT-THRα LBD) (Homo sapiens, UniProt P10827); assay: THR-FRET (time-resolved fluorescence resonance energy transfer) agonist activity assay, THRα; type: biochemical; settings: 24 h at room temperature
T1 construct: made in house; host or cells: E. coli BL21 (DE3)
T1 sequence (P10827 163-407 isoform P10827-2): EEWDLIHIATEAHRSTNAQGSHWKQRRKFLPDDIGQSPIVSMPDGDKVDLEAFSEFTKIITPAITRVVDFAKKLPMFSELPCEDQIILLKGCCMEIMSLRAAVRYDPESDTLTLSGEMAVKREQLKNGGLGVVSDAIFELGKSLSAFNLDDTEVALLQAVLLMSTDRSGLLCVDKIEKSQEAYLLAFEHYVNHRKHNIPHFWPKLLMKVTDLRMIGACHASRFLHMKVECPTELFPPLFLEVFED
Text: (§1) Experimental Example 1: Detection of Agonist Activities of Compounds Against THRα/β Based on Time-Resolved Fluorescence Resonance Energy Transfer (THR-FRET)
(§2) 1. Construction of THRα/β Overexpression Vectors
(§3) By visiting NCBI, the THRα/β LBD domain sequences were found. The pET21-His-GST-dLBT-THRα LBD and pET21-His-GST-dLBT-THRβLBD overexpression vectors were constructed by the fusion method, and sequenced to confirm the accuracy of the sequences.
(§4) 2. Prokaryotic Expression of Recombinant Proteins in E. coli
(§5) The THRα LBD and THRβLBD overexpression vectors confirmed by sequencing were transfected into E. coli cells BL21 (DE3), and spread on an ampicillin-resistant agar plate. Monoclones were picked out and amplified in an LB medium, and transferred into 1 L LB at a ratio of 1:100 for large-scale culture. When the OD value was at 0.8 to 1.2, 0.5 mM isopropyl-beta-D-thiogalactopyranoside (IPTG) was added, and induced overnight at 18° C. The bacteria were harvested, disrupted, and purified via the GST column and the molecular sieve to obtain two proteins His-GST-dLBT-THRα LBD and His-GST-dLBT-THRβLBD.
(§6) 3. Preparation of Compounds and Formulation of Reaction System
(§7) The proteins were taken out from a refrigerator at −80° C. The protein s with the GST-tagged THRα/p LBD domain and the Eu-labelled GST antibodies were thawed slowly on ice, and an assay buffer containing a final concentration of 5 mM dithiothreitol (DTT) was formulated.
(§8) 3.1 Preparation of Compounds
(§9) The starting concentration of the compound was 10 μM (in DMSO). The compound (100 μM in DMSO) was subjected to 3-fold isogradient dilution with DMSO to obtain a total of 11 isogradient concentrations. Subsequently, the above compounds at the isogradient concentration were further subjected to 50-fold dilution with an assay buffer containing 5 mM DTT.
(§10) 3.2 Formulation of THR-FRET Reaction System
(§11) The final concentrations of all components were calculated based on a system with a final volume of 20 µL per well. To […] of assay buffer containing 5 mM DTT, the GST-tagged THRα/β proteins, the SRC2 ([…]) polypeptide, XL665 (Cisobio, #610SAXLB), and the Eu-labeled GST antibody were added, and the final concentrations were 2 nM, 200 nM, 0.05 nM, and 7.6 nM respectively to formulate 18 μL of reaction mixture of the proteins, polypeptide, and antibody per well.
(§12) 18 μL of reaction mixture and 2 μL of diluted compound were added into an optiplate-384-well plate, and reacted at room temperature for 24 h.
(§13) The plate was read using an MD i3x multi-mode microplate reader with the excitation and emission wavelengths of 340 nm and 665 nm, respectively. The intensity of light at a wavelength of 616 nm generated by europium excited by 340 nm wavelength light from the MD i3x multi-mode microplate reader was used as the background. According to the different activation degrees of different compounds against THRα and THRβ, the intensity of the emission light at a wavelength of 665 nm generated by exciting XL665 with the exciting light at a wavelength of 616 nm was varied. The intensity ratio between these two light wavelengths (665 nm, 616 nm) was used as the activation activity of the compound against THRα or THRβ, and was normalized against the ratio in the vehicle DMSO group. The dose-response curve was fitted with four parameters using the GraphPad Prism 6.0 software, and the EC50 value was calculated.

[2] = target: T2, THRβ LBD (His-GST-dLBT-THRβLBD) (Homo sapiens, UniProt P10828); assay: THR-FRET (time-resolved fluorescence resonance energy transfer) agonist activity assay, THRβ; type: biochemical; settings: for EC50: 24 h at room temperature; for Selectivity (THRα/THRβ): ratio of EC50 THRα/THRβ
T2 construct: made in house; host or cells: E. coli BL21 (DE3)
T2 sequence (P10828 217-461 limits assumed): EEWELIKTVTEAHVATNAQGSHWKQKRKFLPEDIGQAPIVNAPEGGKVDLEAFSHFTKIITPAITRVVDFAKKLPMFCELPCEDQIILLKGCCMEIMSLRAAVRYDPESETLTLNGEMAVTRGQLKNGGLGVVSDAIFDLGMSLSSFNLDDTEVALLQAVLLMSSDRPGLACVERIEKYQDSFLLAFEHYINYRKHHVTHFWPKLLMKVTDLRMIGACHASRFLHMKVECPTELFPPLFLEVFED
Text: as §1, §2, §3, §4, §5, §6, §7, §8, §9, §10, §11, §12, §13

THRβ (pGAL4-THRβ-LBD) = target: T3, THRβ (pGAL4-THRβ-LBD) (Homo sapiens, UniProt P10828); assay: Reporter gene (Dual-Glo luciferase) agonist activity assay in HEK293T cells, THRβ; type: cell-based; settings: ratio of EC50 THRα/THRβ
T3 construct: expressed in transfected cells; host or cells: HEK293T
T3 sequence (P10828 217-461): T2 sequence (P10828 217-461 limits assumed)
Text: Experimental Example 2: Detection of Agonist Activities of Compounds Against THRα and THRβ Based on Reporter Gene Activity Assay Method
1.1 Construction and Preparation of Plasmids pGAL4-THR-LBD and pG5-Luc
The pGAL4-THRα-LBD and pGAL4-THRβ-LBD plasmids used in the reporter gene assay system were constructed by a conventional molecular cloning method comprising the following main steps: the cDNA sequences of THRα (NM_003250) and THRβ(NM_000461) corresponding to the amino acid sequences of THRα (163-407AA) and THRβ(217-461AA) were inserted into the BamHI and NotI enzyme digestion sites of the pGAL4 vector by the PCR technique respectively to obtain the pGAL4-THRα-LBD and pGAL4-THRβ-LBD plasmids; the pG5-Luc (#E249A) and pRL-TK (#E2241) plasmids were purchased from Promega; the plasmids were transfected into the E. coli DH5a by the CaCl2 method, and after further culture and amplification, the plasmids were purified by Plasmid Extraction Kits (TIANGEN, #D107) to obtain the corresponding plasmid DNAs.
1.2 Co-Transfection of Plasmids into HEK293T Cells and Treatment with Compounds
The HEK293T cells were inoculated into a 96-well plate at a density of 1×10^4/well the day before plasmid transfection. Cell transfection was conducted according to the instructions of the transfection reagent FuGENE® HD (Promega, #E2311). The main steps were as follows: taking one well as an example here, the plasmids pGAL4-THRα-LBD or pGAL4-THRβ-LBD, pG5-Luc, and pRL-TK were added in the proportions of 20 ng, 50 ng, and 5 ng to 10 μL of Opti-MEM™ I medium (Gibco, #11058021) and mixed well; subsequently, 0.25 μL of FuGENE® HD was added, mixed well, and then left at room temperature for 5 min; afterwards, […] was added to the cell wells containing 100 μL of culture medium. After cell co-transfection for 6 h, the compound was diluted in a 3-fold gradient with dimethyl sulfoxide at the highest concentration of 1 μM. The compound was added to the cell culture medium at a total of 10 concentrations for treatment for 24 h. There were a total of two duplicate wells for each concentration. Triiodothyronine (T3) was used as the positive control.
1.3 Dual-Glo Luciferase Assay
After the cells were treated with the compound for 24 h, the cells were assayed according to the instructions of Dual-Glo® Luciferase Assay System (Promega, #E2940). The main steps were as follows: 50 μL of culture medium was aspirated from each well and discarded, and then 50 μL of Dual-Glo® Luciferase reagent was added and oscillated at room temperature for 10 min; 80 μL of lysis reaction solution was measured into a white opaque optiPlate-96-well plate, and the luminescence signal value (Firefly-Luc) of the Firefly luciferase was detected using an MD i3x multi-mode microplate reader; 40 μL of Dual-Glo® Stop & Glo® reagent was then added, and oscillated at room temperature for 10 min; the luminescence signal value (Renilla-Luc) of the Renilla luciferase was then detected using an MD i3x multi-mode microplate reader. The Firefly-Luc/Renilla-Luc ratio was used as the activation activity of the compound against THR, and was normalized against the ratio in the vehicle DMSO group; the dose-response curve was fitted with four parameters using the GraphPad Prism6.0 software, and the EC50 value was calculated.

Structure (SMILES) | EC50 [1] [nM] | EC50 [2] [nM] | Selectivity (THRα/THRβ) [2] | Selectivity (THRα/THRβ) (THRβ (pGAL4-THRβ-LBD))
O=c1[nH]c(=O)n(-c2cc(Cl)c(Cn3ccc(=O)c4ccccc43)c(Br)c2)nc1C(F)F [Compound 30] | 100 to 1000 | < 50 | †† (10 > THRα/β > 1) | †††† (THRα/β > 20)
O=c1[nH]c(=O)n(-c2cc(Br)c(Cn3ccc(=O)c4ccccc43)c(Br)c2)nc1C(F)F [Compound 29] | 50 to 100 | < 50 | †† (10 > THRα/β > 1) | †††† (THRα/β > 20)
C=Cc1nn(-c2cc(Cl)c(Cn3ccc(=O)c4ccccc43)c(Cl)c2)c(=O)[nH]c1=O [Compound 35] | 1000 to 10000 | 100 to 1000 | †† (10 > THRα/β > 1) | † (5 ≥ THRα/β)
Cc1nn(-c2cc(Br)c(Cn3ccc(=O)c4c(C)cccc43)c(Br)c2)c(=O)[nH]c1=O [Compound 45] | 100 to 1000 | < 50 | †† (10 > THRα/β > 1) | † (5 ≥ THRα/β)
O=C(O)CNc1cc(Cl)c(Cn2ccc(=O)c3ccccc32)c(Cl)c1 [Compound 60] | 100 to 1000 | 100 to 1000 | †† (10 > THRα/β > 1) | –
O=c1cnn(-c2cc(Cl)c(Cn3ccc(=O)c4ccc(Cl)cc43)c(Cl)c2)c(=O)[nH]1 [Compound 12] | – | – | – | † (5 ≥ THRα/β)
O=c1[nH]nc(CNc2cc(Cl)c(Cn3ccc(=O)c4ccccc43)c(Cl)c2)o1 [Compound 63] | 1000 to 10000 | 100 to 1000 | †† (10 > THRα/β > 1) | –
O=c1cnn(-c2cc(Cl)c(Cn3ccc(=O)c4cc(F)ccc43)c(Cl)c2)c(=O)[nH]1 [Compound 5] | – | – | – | † (5 ≥ THRα/β)
O=c1cnn(-c2cc(Cl)c(Cn3ccc(=O)c4cc(Br)ccc43)c(Cl)c2)c(=O)[nH]1 [Compound 7] | – | – | – | † (5 ≥ THRα/β)
O=c1cnn(-c2cc(Cl)c(Cn3ccc(=O)c4cc(OC(F)(F)F)ccc43)c(Cl)c2)c(=O)[nH]1 [Compound 8] | – | – | – | † (5 ≥ THRα/β)
O=c1[nH]c(CNc2cc(Cl)c(Cn3ccc(=O)c4ccccc43)c(Cl)c2)no1 [Compound 64] | 100 to 1000 | 50 to 100 | †† (10 > THRα/β > 1) | –
O=c1[nH]c(COc2cc(Cl)c(Cn3ccc(=O)c4ccccc43)c(Cl)c2)no1 [Compound 58] | 100 to 1000 | 100 to 1000 | †† (10 > THRα/β > 1) | –
CCOC(=O)c1cn(Cc2c(Cl)cc(-n3ncc(=O)[nH]c3=O)cc2Cl)c2ccccc2c1=O [Compound 21] | – | – | – | † (5 ≥ THRα/β)
Cn1nc(-c2cc(Cl)c(Cn3ccc(=O)c4ccccc43)c(Cl)c2)c(=O)[nH]c1=O [Compound 51] | – | – | – | † (5 ≥ THRα/β)
O=c1cnn(-c2cc(Cl)c(Cn3ccc(=O)c4cc(Cl)ccc43)c(Cl)c2)c(=O)[nH]1 [Compound 6] | – | – | – | † (5 ≥ THRα/β)
O=c1ccn(Cc2c(Cl)cc(OCc3nnn[nH]3)cc2Cl)c2ccccc12 [Compound 59] | 100 to 1000 | 100 to 1000 | †† (10 > THRα/β > 1) | –
O=C(O)CC(=O)Nc1cc(Cl)c(Cn2ccc(=O)c3ccccc32)c(Cl)c1 [Compound 61] | 1000 to 10000 | 100 to 1000 | †† (10 > THRα/β > 1) | –
COC(=O)c1cc2c(=O)ccn(Cc3c(Cl)cc(-n4ncc(=O)[nH]c4=O)cc3Cl)c2cc1OC [Compound 27] | – | – | – | † (5 ≥ THRα/β)

Further lines, with some results ahead:

EC50 [1] [nM] | EC50 [2] [nM] | Selectivity (THRα/THRβ) [2] | Structure (SMILES) | Selectivity (THRα/THRβ) (THRβ (pGAL4-THRβ-LBD))
1000 to 10000 | 100 to 1000 | †† (10 > THRα/β > 1) | N#Cc1nn(-c2cc(Cl)c(Cn3ccc(=O)c4ccccc43)c(Cl)c2)c(=O)[nH]c1=O [Compound 31] | –
100 to 1000 | 50 to 100 | †† (10 > THRα/β > 1) | O=C(O)C(=O)Nc1cc(Cl)c(Cn2ccc(=O)c3ccccc32)c(Cl)c1 [Compound 62] | –
1000 to 10000 | 100 to 1000 | ††† (THRα/β ≥ 10) | O=C(Nc1cc(Cl)c(Cn2ccc(=O)c3ccccc32)c(Cl)c1)c1noc(=O)[nH]1 [Compound 66] | –
100 to 1000 | 50 to 100 | †† (10 > THRα/β > 1) | C#Cc1nn(-c2cc(Cl)c(Cn3ccc(=O)c4ccccc43)c(Cl)c2)c(=O)[nH]c1=O [Compound 40] | –
100 to 1000 | < 50 | ††† (THRα/β ≥ 10) | O=c1ccn(Cc2c(Cl)cc(NCc3nnn[nH]3)cc2Cl)c2ccccc12 [Compound 65] | –
